In PubChem BioAssay AID330 (DTP/NCI, 2004) one finds T/C data, which are given here for 23 compounds.

The assay concerns P388 leukemia ip, CD2F1 mice, survival T/C. The assay is described as follows: NCI In Vivo Anticancer Drug Screen. Data for tumor model P388 Leukemia (intraperitoneal) in CD2F1 (CDF1) mice. Conditions: endpoint: median survival time, higher = longer survival. The method, boiled down:
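Mice carrying the transplanted tumor received test compound or vehicle. Survival was recorded in each group, and the value is the treated-group measurement divided by that of the vehicle-treated control group.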

The mark [1] stands for this setting: dose: 12.5 mg/kg/injection, schedule: Q01DX009 (ip), vehicle: other.
[2] abbreviates: dose: 12.5 mg/kg/injection, schedule: Q01DX009 (ip), vehicle: saline.
The mark [3] stands for this setting: dose: 25.0 mg/kg/injection, schedule: Q01DX009 (ip), vehicle: other.
Where [4] appears, read: dose: 25.0 mg/kg/injection, schedule: Q01DX009 (ip), vehicle: saline.
[5] abbreviates: dose: 50.0 mg/kg/injection, schedule: Q01DX009 (ip), vehicle: other.
Setting [6] is: dose: 50.0 mg/kg/injection, schedule: Q01DX009 (ip), vehicle: saline.
Setting [7] is: dose: 100.0 mg/kg/injection, schedule: Q04DX003 (ip), vehicle: saline.
Setting [8] is: dose: 100.0 mg/kg/injection, schedule: Q01DX009 (ip), vehicle: saline.
Where [9] appears, read: dose: 200.0 mg/kg/injection, schedule: Q01DX009 (ip), vehicle: saline.
[10] abbreviates: dose: 60.0 mg/kg/injection, schedule: Q01DX005 (ip), vehicle: saline with Tween-80.
Setting [11] is: dose: 120.0 mg/kg/injection, schedule: Q01DX005 (ip), vehicle: saline with Tween-80.
[12] abbreviates: dose: 50.0 mg/kg/injection, schedule: Q01DX005 (ip), vehicle: saline with Tween-80.
The mark [13] stands for this setting: dose: 100.0 mg/kg/injection, schedule: Q01DX005 (ip), vehicle: saline with Tween-80.
The mark [14] stands for this setting: dose: 200.0 mg/kg/injection, schedule: Q01DX005 (ip), vehicle: saline with Tween-80.
[15] abbreviates: dose: 50.0 mg/kg/injection, schedule: Q01DX005 (ip), vehicle: Klucel (hydroxypropylcellulose) (HPC).
The mark [16] stands for this setting: dose: 100.0 mg/kg/injection, schedule: Q01DX005 (ip), vehicle: Klucel (hydroxypropylcellulose) (HPC).
The mark [17] stands for this setting: dose: 200.0 mg/kg/injection, schedule: Q01DX005 (ip), vehicle: Klucel (hydroxypropylcellulose) (HPC).
[18] abbreviates: dose: 50.0 mg/kg/injection, schedule: Q01DX005 (ip), vehicle: saline.
The mark [19] stands for this setting: dose: 100.0 mg/kg/injection, schedule: Q01DX005 (ip), vehicle: saline.

Values joined by “and” are separate entries in the source; they are usually repeats but may differ in a detail not shown here. Equal entries are not always repeated. Inconclusive results and toxic doses are left out. Square brackets hold non-standard residues; d marks the D form. Peptide text beside a SMILES is read from it. Ac5c = NC1(C(=O)O)CCCC1; Sar = CNCC(=O)O

Take `COC(=O)[C@@H]1c2cc3c(c(O)c2[C@@H](OC)C[C@@]1(C)O)C(=O)c1c(O)cc2c(c1C3=O)OC1O[C@@]2(C)[C@H](O)[C@@H](N(C)C)[C@@H]1O`: the T/C is 110 % of control (dose: 6.25 mg/kg/injection, schedule: Q01DX010 (ip), vehicle: saline); 171 % of control under setting [1]; 156 % of control under setting [2]; 110 % of control (dose: 12.5 mg/kg/injection, schedule: Q01DX010 (ip), vehicle: saline); 176 % of control under setting [3]; 159 % of control under setting [4]. Further, the T/C reads like this: (dose: 25.0 mg/kg/injection, schedule: Q01DX010 (ip), vehicle: saline) 120 % of control; under setting [5], 171 % of control; under setting [6], 98 % of control; (dose: 50.0 mg/kg/injection, schedule: Q01DX010 (ip), vehicle: saline) 110 % of control; (dose: 50.0 mg/kg/injection, schedule: Q04DX003 (ip), vehicle: other) 153 % of control; (dose: 50.0 mg/kg/injection, schedule: Q04DX003 (ip), vehicle: saline) 150 % of control. Moreover, the T/C is 158 % of control (dose: 100.0 mg/kg/injection, schedule: Q04DX003 (ip), vehicle: other) and 150 % of control under setting [7].
Take `O=C(O)C/[N+]([O-])=N\O`: the T/C under setting [6] is 102 % of control; the T/C under setting [8] was 102 % of control; the T/C under setting [7] is 104 % of control; the T/C under setting [9] is 96 % of control; the T/C (dose: 200.0 mg/kg/injection, schedule: Q04DX003 (ip), vehicle: saline) was 105 % of control; the T/C (dose: 400.0 mg/kg/injection, schedule: Q01DX009 (ip), vehicle: saline) was 94 % of control. Under “dose: 400.0 mg/kg/injection, schedule: Q04DX003 (ip), vehicle: saline”, the T/C was 92 % of control.
On to `CCC(=N)C(c1ccccc1)(c1ccccc1)C(C)CN(C)C` (stereo not drawn), for which the T/C is, setting by setting: (dose: 15.0 mg/kg/injection, schedule: Q01DX005 (ip), vehicle: saline) 101 % of control; (dose: 30.0 mg/kg/injection, schedule: Q01DX005 (ip), vehicle: saline) 101 % of control; (dose: 60.0 mg/kg/injection, schedule: Q01DX005 (ip), vehicle: saline) 100 % of control.
As for `O=C(c1ccc(Cl)c(Cl)c1)N1CCNC1=S`, the T/C (dose: 50.0 mg/kg/injection, schedule: Q01DX009 (ip), vehicle: Klucel (hydroxypropylcellulose) (HPC)) was 104 % of control; the T/C (dose: 100.0 mg/kg/injection, schedule: Q01DX009 (ip), vehicle: Klucel (hydroxypropylcellulose) (HPC)) was 104 % of control; the T/C (dose: 200.0 mg/kg/injection, schedule: Q01DX009 (ip), vehicle: Klucel (hydroxypropylcellulose) (HPC)) is 100 % of control.
Turning to `COc1cc(O)c2c(c1O)C1(C)C(=O)CCCC1(O)CC2=O` (stereo not drawn), the T/C (dose: 100.0 mg/kg/injection, schedule: Q01DX001 (ip), vehicle: saline with Tween-80) is 90 % of control; the T/C (dose: 200.0 mg/kg/injection, schedule: Q01DX001 (ip), vehicle: saline with Tween-80) was 100 % of control; the T/C (dose: 400.0 mg/kg/injection, schedule: Q01DX001 (ip), vehicle: saline with Tween-80) is 100 % of control.
In the case of `Nc1ccc(Cn2ccnn2)cc1`, the T/C is, setting by setting: under setting [10], 100 % of control; under setting [11], 95 % of control; (dose: 240.0 mg/kg/injection, schedule: Q01DX005 (ip), vehicle: saline with Tween-80) 101 % of control.
As to `CCOS(=O)(=O)CC(C)C(C)C` (stereo not drawn), the T/C under setting [12] was 98 % of control, the T/C under setting [13] was 104 % of control and the T/C under setting [14] is 101 % of control.
In the case of `CN(C)CC(C)(CN(C)C)C(=O)/C=C/c1c(Cl)cccc1Cl`, the T/C reads like this: under setting [10], 115 % of control; under setting [11], 120 % of control.
In the case of `O=c1c(I)cn(CC(O)CO)c(=O)n1CC(O)CO` (stereo not drawn), the T/C is, setting by setting: under setting [15], 95 % of control; under setting [16], 100 % of control; under setting [17], 86 % of control.
For `COc1cc2c(cc1OC)C1=C(CC2)C2CCCN2CC1` (stereo not drawn), the T/C runs as follows: (dose: 12.5 mg/kg/injection, schedule: Q04DX003 (ip), vehicle: saline) 104 % of control; (dose: 25.0 mg/kg/injection, schedule: Q04DX003 (ip), vehicle: saline) 100 % of control.
Turning to `COc1ccccc1[B-]12OCC[N+]1(CNC(=O)c1ccccc1O)CCO2` (stereo not drawn), the T/C is, setting by setting: under setting [15], 102 % of control; under setting [16], 103 % of control; under setting [17], 103 % of control.
As to `Nc1ncccc1O`, the T/C is, setting by setting: (dose: 2.5 mg/kg/injection, schedule: Q01DX009 (ip), vehicle: saline) 104 % of control; (dose: 5.0 mg/kg/injection, schedule: Q01DX009 (ip), vehicle: saline) 97 % of control; (dose: 10.0 mg/kg/injection, schedule: Q01DX009 (ip), vehicle: saline) 96 % of control; (dose: 20.0 mg/kg/injection, schedule: Q01DX009 (ip), vehicle: saline) 110 % of control; (dose: 40.0 mg/kg/injection, schedule: Q01DX009 (ip), vehicle: saline) 107 % of control.
`CCCCCCCCCC1=C(C#N)C(=O)OCCN1C`: the T/C under setting [10] is 92 % of control and the T/C under setting [11] was 93 % of control.
As for `Cc1cc(C)nc(Nc2nnc(Nc3cc(C)cc(C)n3)c3ccccc23)c1`, the T/C was 96 % of control under setting [12], 93 % of control under setting [13] and 87 % of control under setting [14].
As for `COc1cc(Br)c(C(=O)N2CCCc3ccccc32)cc1OC`, the T/C is, setting by setting: under setting [1], 101 % of control; under setting [3], 94 % of control; under setting [5], 91 % of control; (dose: 100.0 mg/kg/injection, schedule: Q01DX009 (ip), vehicle: other) 91 % of control; (dose: 200.0 mg/kg/injection, schedule: Q01DX009 (ip), vehicle: other) 94 % of control.
In the case of `CN1NC(c2ccccc2)NN(C)C1=O`, the T/C is, setting by setting: under setting [18], 97 % of control; under setting [19], 99 % of control; (dose: 200.0 mg/kg/injection, schedule: Q01DX005 (ip), vehicle: saline) 106 % of control.
Take `COc1cc(C(=O)c2ccc3c(c2)OCO3)cc(OC)c1OC`: the T/C reads like this: under setting [15], 98 % of control; under setting [16], 93 % of control; under setting [17], 99 % of control.
Take `NC(=S)N/N=C1\C(=O)NC(=O)C1c1ccccc1` (stereo not drawn): the T/C by setting is: under setting [12], 115 % of control; under setting [13], 105 % of control.
Consider `CNCC(=O)NC1(C(=O)O)CCCC1` (H-[Sar]-[Ac5c]-OH), for which the T/C is 100 % of control under setting [6], 94 % of control under setting [8] and 109 % of control under setting [9].
Take `Nc1cncc2nnnn12`: the T/C was 104 % of control (dose: 60.0 mg/kg/injection, schedule: Q01DX005 (ip), vehicle: Klucel (hydroxypropylcellulose) (HPC)); 104 % of control (dose: 120.0 mg/kg/injection, schedule: Q01DX005 (ip), vehicle: Klucel (hydroxypropylcellulose) (HPC)); 113 % of control (dose: 240.0 mg/kg/injection, schedule: Q01DX005 (ip), vehicle: Klucel (hydroxypropylcellulose) (HPC)).
`CC1OP(=S)(S)OC1C` (stereo not drawn): the T/C by setting is: under setting [18], 95 % of control; under setting [19], 100 % of control.
Regarding `C=CC(=NC(C)C)N(C)c1ccccc1`, the T/C (dose: 6.25 mg/kg/injection, schedule: Q01DX009 (ip), vehicle: saline) was 101 % of control; the T/C under setting [2] was 96 % of control; the T/C under setting [4] is 96 % of control.
On to `O=c1[nH]c2ccccc2cc1CBr`, for which the T/C (dose: 50.0 mg/kg/injection, schedule: Q04DX002 (ip), vehicle: Klucel (hydroxypropylcellulose) (HPC)) was 95 % of control; the T/C (dose: 100.0 mg/kg/injection, schedule: Q04DX002 (ip), vehicle: Klucel (hydroxypropylcellulose) (HPC)) is 102 % of control and 104 % of control; the T/C (dose: 400.0 mg/kg/injection, schedule: Q04DX002 (ip), vehicle: Klucel (hydroxypropylcellulose) (HPC)) was 96 % of control.
